Experimental data as given in patent US9931300B2, “Methods for superdisintegrant-based composite particles for dispersion and dissolution of active pharmaceutical agents” (New Jersey Institute of Technology, priority 2012, dated 2018).

Assays:
[1] = USP II dissolution test of NCMPs in deionized water; type: physicochemical
Description: Dissolution tests were carried out in a standard USP II apparatus with about 50 rpm paddle speed. A sample of NCMPs (n=6) containing about 8.9 mg GF were dissolved in about 1000 ml deionized water at about 37° C., and samples taken from the vessel were syringe-filtered (0.1 μm filter) and assayed via UV spectroscopy. Unlike in the re-dispersion test, the use of a large amount of water ensures substantially full solubilization of the drug in this test.

[2] = Particle size of as-received / dry powders (Rodos/Helos laser diffraction where stated); type: physicochemical; conditions: as-received or dry
Description: The particle sizes of GF suspensions after milling in Runs 2, 3, and 5 (about 10% GF/about 2.5% HPC) indicate that the milling results were fairly reproducible. […] The dry particle size of CCS, as measured by Rodos/Helos laser diffraction system, was D10: 12.90 μm, D50: 28.55 μm, and D90: 66.09 The particle size increased to D10:13.74 μm, D50: 63.68 μm and D90: 96.28 μm after about 3 h swelling in de-ionized water as measured by Coulter LS13320 with the liquid module.
The suspensions were coated onto Pharmatose® carrier particles in the fluidized bed processor. The particle size statistics of Pharmatose® as measured by Rodos is D10: 58 μm, D50: 116 μm and D90: 206 μm. The median particle size of Pharmatose® increased from about 116 μm to about 120-150 μm due to coating and some agglomeration.

[3] = cited from earlier work

## COC1=CC(=O)C[C@@H](C)[C@]12Oc1c(Cl)c(OC)cc(OC)c1C2=O [GF, griseofulvin]
[1]
  GF dissolved in about 60 min: about 14%
[2]
  particle size D10 of as-received / dry powder: 3.9 μm
  particle size D50 of as-received / dry powder: 16.0 μm
  particle size D90 of as-received / dry powder: 47.4 μm
[3]; methanol, about 25° C.
  solubility in methanol: about 30 mg/ml

## OC[C@@H](O)[C@@H](O)[C@H](O)[C@H](O)CO [Mannitol]
[3]; water
  solubility in water: about 180 g/L
